PubChem BioAssay (NCI)
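GI50 marks 50% less growth. At the TGI there is no net growth.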

Columns and labels:
Assay in all cases: NCI tumour cell line growth inhibition, 384-well format
OVCAR-3 ovarian = test system: OVCAR-3 ovarian
EKVX NSCLC = test system: EKVX NSCLC
ACHN renal = test system: ACHN renal
SF-268 CNS = test system: SF-268 CNS
IGROV1 ovarian = test system: IGROV1 ovarian
NCI-H460 NSCLC = test system: NCI-H460 NSCLC
A549 NSCLC = test system: A549 NSCLC
MOLT-4 leukemia = test system: MOLT-4 leukemia
MALME-3M melanoma = test system: MALME-3M melanoma
MDA-MB-231 breast = test system: MDA-MB-231 breast
U251 glioblastoma = test system: U251 glioblastoma
SK-MEL-28 melanoma = test system: SK-MEL-28 melanoma
HCT-15 colon = test system: HCT-15 colon
SR leukemia = test system: SR leukemia
UACC-62 melanoma = test system: UACC-62 melanoma
OVCAR-4 ovarian = test system: OVCAR-4 ovarian
SNB-19 CNS = test system: SNB-19 CNS
NCI/ADR-RES ovarian = test system: NCI/ADR-RES ovarian
UO-31 renal = test system: UO-31 renal
CAKI-1 renal = test system: CAKI-1 renal
A498 renal = test system: A498 renal
LOX IMVI melanoma = test system: LOX IMVI melanoma
OVCAR-8 ovarian = test system: OVCAR-8 ovarian
786-0 renal = test system: 786-0 renal
SK-OV-3 ovarian = test system: SK-OV-3 ovarian
KM12 colon = test system: KM12 colon
HS 578T breast = test system: HS 578T breast
RPMI-8226 leukemia = test system: RPMI-8226 leukemia
NCI-H522 lung = test system: NCI-H522 lung
PC-3 prostate = test system: PC-3 prostate
MDA-MB-468 breast = test system: MDA-MB-468 breast
DU-145 prostate = test system: DU-145 prostate
HOP-62 NSCLC = test system: HOP-62 NSCLC
K-562 leukemia = test system: K-562 leukemia
HCC-2998 colon = test system: HCC-2998 colon
BT-549 breast = test system: BT-549 breast
NCI-H23 lung = test system: NCI-H23 lung
HT29 colon = test system: HT29 colon
SF-539 CNS = test system: SF-539 CNS
COLO 205 colon = test system: COLO 205 colon
M14 melanoma = test system: M14 melanoma
SF-295 CNS = test system: SF-295 CNS
SNB-75 CNS = test system: SNB-75 CNS
MDA-MB-435 melanoma = test system: MDA-MB-435 melanoma
TK-10 renal = test system: TK-10 renal
NCI-H322M lung = test system: NCI-H322M lung
SK-MEL-2 melanoma = test system: SK-MEL-2 melanoma

## Nc1ncn(C2OC(CO)C(O)C2O)c(=O)n1 (stereo not drawn)
OVCAR-3 ovarian
  GI50: 1.46 µM
  TGI: 5.06 µM
EKVX NSCLC
  GI50: 19.5 µM
  TGI: > 75.8 µM
ACHN renal
  GI50: 1.3 µM
  TGI: 17 µM
SF-268 CNS
  GI50: 4.36 µM
  TGI: > 31.9 µM
IGROV1 ovarian
  GI50: 2.61 µM
  TGI: 10.3 µM
NCI-H460 NSCLC
  GI50: 0.239 µM
  TGI: 1.27 µM
A549 NSCLC
  GI50: 3.24 µM
  TGI: > 38 µM
MOLT-4 leukemia
  GI50: 1.32 µM
  TGI: 2.72 µM
MALME-3M melanoma
  GI50: 3.3 µM
  TGI: 16.7 µM
MDA-MB-231 breast
  GI50: 1.55 µM
  TGI: 17.4 µM
U251 glioblastoma
  GI50: 1.42 µM
  TGI: > 33.2 µM
SK-MEL-28 melanoma
  GI50: 3.33 µM
  TGI: 18 µM
HCT-15 colon
  GI50: 2.11 µM
  TGI: 8.05 µM
SR leukemia
  GI50: 0.165 µM
  TGI: 0.423 µM
UACC-62 melanoma
  GI50: 0.561 µM
  TGI: 2.78 µM
OVCAR-4 ovarian
  GI50: 3.33 µM
  TGI: 23.8 µM
SNB-19 CNS
  GI50: 4.47 µM
  TGI: > 42.2 µM
NCI/ADR-RES ovarian
  GI50: 4.25 µM
  TGI: > 35.6 µM
UO-31 renal
  GI50: 2.5 µM
  TGI: 15.1 µM
CAKI-1 renal
  GI50: 0.466 µM
  TGI: 4.35 µM
A498 renal
  GI50: 2.5 µM
  TGI: 11.9 µM
LOX IMVI melanoma
  GI50: 0.531 µM
  TGI: 1.85 µM
OVCAR-8 ovarian
  GI50: 1.99 µM
  TGI: 17.8 µM
786-0 renal
  GI50: 1.87 µM
  TGI: > 42.3 µM
SK-OV-3 ovarian
  GI50: 3.18 µM
  TGI: > 27.7 µM
KM12 colon
  GI50: 2.54 µM
  TGI: 11.8 µM
HS 578T breast
  GI50: 1.38 µM
  TGI: 7.12 µM
RPMI-8226 leukemia
  GI50: 0.138 µM
  TGI: 0.59 µM
NCI-H522 lung
  GI50: 1.58 µM
  TGI: 6.41 µM
PC-3 prostate
  GI50: 4.16 µM
  TGI: 42.1 µM
MDA-MB-468 breast
  GI50: 0.529 µM
  TGI: 1.41 µM
DU-145 prostate
  GI50: 1.1 µM
  TGI: 6.53 µM
HOP-62 NSCLC
  GI50: 0.899 µM
  TGI: 3.51 µM
K-562 leukemia
  GI50: 0.657 µM
  TGI: 5.41 µM
HCC-2998 colon
  GI50: 1.58 µM
  TGI: 5.01 µM
BT-549 breast
  GI50: 0.694 µM
  TGI: 3.31 µM
NCI-H23 lung
  GI50: 7.25 µM
  TGI: 28.4 µM
HT29 colon
  GI50: 3.52 µM
  TGI: 30.1 µM
SF-539 CNS
  GI50: 2.07 µM
  TGI: 6.09 µM
COLO 205 colon
  GI50: 1.41 µM
  TGI: 10.9 µM
M14 melanoma
  GI50: 1.45 µM
  TGI: 9.78 µM
SF-295 CNS
  GI50: 2.78 µM
  TGI: 16.5 µM
SNB-75 CNS
  GI50: 2.23 µM
MDA-MB-435 melanoma
  GI50: 1.71 µM
  TGI: 8.65 µM
TK-10 renal
  GI50: 2.3 µM
  TGI: 30.5 µM
NCI-H322M lung
  GI50: 1.52 µM
  TGI: 25.7 µM
SK-MEL-2 melanoma
  GI50: 0.911 µM
  TGI: 2.85 µM
